The source made the active and inactive calls. No cut-off for these calls is given here.
Assays:
[1] = system: GH3; experiment: Maximal stimulation of Ca 2+ uptake was determined; type: functional, Rattus norvegicus
[2] = system: GH3; experiment: Effect on K+ stimulated [Ca2+] influx in GH3 cells at 10e-6 concentration; type: functional, Rattus norvegicus
[3] = system: GH3; experiment: Effect on K+ stimulated [Ca2+] influx in GH3 cells at 10e-8 concentration; type: functional, Rattus norvegicus
[4] = system: GH3; experiment: Concentration required for enhancing calcium influx into GH 3 cells was determined; type: functional, cell-based; conditions: Rattus norvegicus
[5] = system: GH3; experiment: Effect on K+ stimulated [Ca2+] influx in GH3 cells at 10e-5 concentration; type: functional, Rattus norvegicus
[6] = system: GH3; experiment: Effect on K+ stimulated [Ca2+] influx in GH3 cells at 10e-7 concentration; type: functional, Rattus norvegicus
[7] = system: GH3; experiment: Concentration required for 84% enhancing calcium influx intoGH 3 cells was determined; type: functional, cell-based; conditions: Rattus norvegicus
[8] = system: GH3; experiment: Maximal stimulation of Ca 2+ uptake was determined; no significant effect; type: functional, cell-based; conditions: Rattus norvegicus

| SMILES | EC50 [4] [nM] | EC50 [7] [nM] | Stimulation [1] [%] | Increase [2] [%] | Increase [3] [%] | Increase [5] [%] | Increase [6] [%] | Stimulation [8] |
| --- | --- | --- | --- | --- | --- | --- | --- | --- |
| COC(=O)c1c(C)[nH]c(C)c1C(=O)c1ccccc1Cc1ccccc1 | 140 | – | 298 | 240 | 20 | 280 | 140 | – |
| COC(=O)c1c(C)[nH]c(C)c1C(=O)c1ccccc1-c1ccccc1 | – | – | – | -8 | 0 | 0 | -8 | inactive |

The next lines start with results.

| EC50 [4] [nM] | EC50 [7] [nM] | SMILES | Stimulation [1] [%] | Increase [2] [%] | Increase [3] [%] | Increase [5] [%] | Increase [6] [%] | Stimulation [8] |
| --- | --- | --- | --- | --- | --- | --- | --- | --- |
| 614 | – | COC(=O)c1c(C)[nH]c(C)c1C(=O)c1ccccc1CCCc1ccccc1 | 265 | 160 | -8 | 220 | 0 | – |
| – | 10000 | COC(=O)c1c(C)[nH]c(C)c1C(=O)c1ccccc1CCCCc1ccccc1 | – | 80 | 0 | 20 | 20 | inactive |
| 207 | – | COC(=O)c1c(C)[nH]c(C)c1C(=O)c1ccccc1CCc1ccccc1 | 420 | 340 | 0 | 350 | 120 | – |
